Source: article PMC4753678 (Journal of medicinal chemistry, 2016)
Values belong to the compound of their own block, whether it stands above or below them.

How the values were obtained:
[1] = biological target: T1, full-length human dCTPase protein (Homo sapiens, UniProt Q9H773); assay: HTS-adapted Malachite Green assay of dCTPase inhibition; assay type: biochemical; conditions: for decrease in potency: compared with compound 6
T1 sequence (Q9H773 1-170): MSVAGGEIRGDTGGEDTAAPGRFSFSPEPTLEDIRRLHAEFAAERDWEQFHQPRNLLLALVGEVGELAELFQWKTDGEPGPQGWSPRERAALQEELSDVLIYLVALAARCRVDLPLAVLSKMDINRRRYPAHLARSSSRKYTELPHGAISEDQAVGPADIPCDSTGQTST

purified dCTPase enzyme = biological target: T2, purified dCTPase enzyme (Homo sapiens, UniProt Q9H773); assay: differential scanning fluorimetry assay; assay type: binding
T2 sequence (Q9H773 1-170): T1 sequence (Q9H773 1-170)

intracellular dCTPase = biological target: T3, intracellular dCTPase (Homo sapiens, UniProt Q9H773); assay: cellular thermal shift assay in HL60 cells; assay type: cell-based; conditions: 2 h incubation, heated at 67 °C
T3 sequence (Q9H773 1-170): T1 sequence (Q9H773 1-170)

[2] = stability of a solution at room temperature under normal light; assay type: physicochemical; conditions: normal light conditions, five months
[3] = glutathione conjugation with metabolic activation in HLM; assay type: in vitro ADME, human; conditions: in the presence of metabolic activation system (in HLM)
[4] = test system: p-Chk1, γ-H2AX, 53BP1, cleaved caspase 3; assay: DNA replication stress and apoptosis markers; assay type: cell-based; conditions: at the concentrations and time points tested
dCTPase = biological target: T4, dCTPase (Homo sapiens, UniProt Q9H773); assay: jump dilution assay; assay type: biochemical; conditions: 10% of the IC50 concentration
T4 sequence (Q9H773 1-170): T1 sequence (Q9H773 1-170)

HL60 cells = assay: combination with cytidine analogues, cell death by flow cytometry; assay type: cell-based; conditions: 72 h, compound 18 2.5 μM, increasing concentrations of cytidine analogues
NTPases/NUDIX hydrolases = assay: selectivity panel of related NTPases/NUDIX hydrolases; assay type: biochemical
[5] = test system: base excision repair enzymes; assay: selectivity against base excision repair enzymes; assay type: biochemical
kinases = assay: selectivity against kinases; assay type: biochemical
DNA = DNA intercalation
[6] = mouse liver microsome stability; conditions: mouse liver microsomes
[7] = human liver microsome stability; conditions: human liver microsomes
plasma protein binding = assay type: in vitro ADME

- inhibition of dCTPase (in words) [1]: no inhibiton of dCTPase
Structure (SMILES): COc1ccc(Cn2cnc3ccccc32)cc1 [Compound 7, 1-(4-Methoxybenzyl)-1H-benzo[d]imidazole]

Structure (SMILES): Cc1nc2c([N+](=O)[O-])c(Cl)c(Cl)cc2n1Cc1ccc(B(O)O)cc1 [Compound 18, (4-((5,6-Dichloro-2-methyl-4-nitro-1H-benzo[d]imidazol-1-yl)-methyl)phenyl)boronic Acid]
- stabilization of the purified dCTPase enzyme (purified dCTPase enzyme): concentration-dependent stabilization
- intracellular dCTPase stabilization / target engagement (intracellular dCTPase): strong intracellular target engagement
- degradation of a solution [2]: no signs of degradation
- conjugation with glutathione (GSH) [3]: did not conjugate
- DNA replication stress (p-Chk1, γ-H2AX, 53BP1) and cleaved caspase 3 [4]: did not increase DNA replication stress
- reversibility of dCTPase inhibition (dCTPase): reversible off-rate
- cell death in combination with cytidine analogues (HL60 cells): concentration-dependent increase in cell death
- selectivity across related NTPases/NUDIX hydrolases (NTPases/NUDIX hydrolases): excellent selectivity
- selectivity over base excision repair enzymes [5]: excellent selectivity
- selectivity over kinases (kinases): excellent selectivity
- DNA intercalation (DNA): did not intercalate DNA
- E MLM (extraction ratio) [6]: 0.24
- E HLM (extraction ratio) [7]: 0.38

- fraction unbound (plasma protein binding): 0.008
- conjugation with glutathione (GSH) [3]: did not conjugate
- E MLM (extraction ratio) [6]: 0.36
Structure (SMILES): Cc1nc2c([N+](=O)[O-])c(Cl)c(Cl)cc2n1Cc1ccc(B2OC(=O)CN(C)CC(=O)O2)cc1 [Compound 30, 2-(4-((5,6-Dichloro-2-methyl-4-nitro-1H-benzo[d]-imidazol-1-yl)methyl)phenyl)-6-methyl-1,3,6,2-dioxazaborocane-4,8-dione]

- inhibition of dCTPase (in words) [1]: no inhibition of dCTPase
Structure (SMILES): COc1ccc(Cn2c(C)nc3ccccc32)cc1 [Compound 9, 1-(4-Methoxybenzyl)-2-methyl-1H-benzo[d]imidazole]

- decrease in potency [1]: 400 fold
Structure (SMILES): COc1ccc(Cn2c(C)nc3cc(C)c(C)cc32)cc1 [Compound 10, 1-(4-Methoxybenzyl)-2,5,6-trimethyl-1H-benzo[d]imidazole]

- decrease in potency [1]: approximately 25 fold
Structure (SMILES): COc1ccc(Cn2c(C)nc3c([N+](=O)[O-])cccc32)cc1 [Compound 12, 1-(4-Methoxybenzyl)-2-methyl-4-nitro-1H-benzo[d]imidazole]

- inhibition of dCTPase (in words) [1]: no inhibiton of dCTPase
Structure (SMILES): COc1ccc(Cn2cnc3cc(C)c(C)cc32)cc1 [Compound 8, 1-(4-Methoxybenzyl)-5,6-dimethyl-1H-benzo[d]imidazole]

- reversibility of dCTPase inhibition (dCTPase): reversible off-rate
- E MLM (extraction ratio) [6]: 0.83
- E HLM (extraction ratio) [7]: 0.14
Structure (SMILES): O=[N+]([O-])c1c(Cl)c(Cl)cc2c1nc(C1CC1)n2Cc1ccc(B(O)O)cc1 [Compound 36, (4-((5,6-Dichloro-2-cyclopropyl-4-nitro-1H-benzo[d]imidazol-1-yl)methyl)phenyl)boronic Acid]

- inhibition of dCTPase (in words) [1]: submicromolar activity
Structure (SMILES): Cc1nc2cc(Cl)c(Cl)cc2n1Cc1ccc(B(O)O)cc1 [Compound 38, (4-((5,6-Dichloro-2-methyl-1H-benzo[d]imidazol-1-yl)methyl)-phenyl)boronic Acid]

- E MLM (extraction ratio) [6]: 0.73
- E HLM (extraction ratio) [7]: 0.61
Structure (SMILES): Cc1nc2c([N+](=O)[O-])c(Cl)c(Cl)cc2n1Cc1ccc(-n2cccn2)cc1 [Compound 27, 1-(4-(1H-Pyrazol-1-yl)benzyl)-5,6-dichloro-2-methyl-4-nitro-1H-benzo[d]imidazole]

- stabilization of the purified dCTPase enzyme (purified dCTPase enzyme): concentration-dependent stabilization
- intracellular dCTPase stabilization / target engagement (intracellular dCTPase): did not stabilize dCTPase
- selectivity over base excision repair enzymes [5]: excellent selectivity
- DNA intercalation (DNA): did not intercalate DNA
- E MLM (extraction ratio) [6]: 0.88
- E HLM (extraction ratio) [7]: 0.59
Structure (SMILES): COc1ccc(Cn2c(C)nc3c([N+](=O)[O-])c(Cl)c(Cl)cc32)cc1 [Compound 14, 5,6-Dichloro-1-(4-methoxybenzyl)-2-methyl-4-nitro-1H-benzo-[d]imidazole]
- selectivity across related NTPases/NUDIX hydrolases (NTPases/NUDIX hydrolases): excellent selectivity
- selectivity over kinases (kinases): excellent selectivity

- inhibition of dCTPase (in words) [1]: submicromolar activity
Structure (SMILES): Cc1nc2c([N+](=O)[O-])c(F)c(F)cc2n1Cc1ccc(B(O)O)cc1 [Compound 39, (4-((5,6-Difluoro-2-methyl-4-nitro-1H-benzo[d]imidazol-1-yl)-methyl)phenyl)boronic Acid]

- E MLM (extraction ratio) [6]: 0.89
- E HLM (extraction ratio) [7]: 0.83
Structure (SMILES): Cc1n[nH]c(C)c1CCn1c(C)nc2c([N+](=O)[O-])c(Cl)c(Cl)cc21 [Compound 25, 5,6-Dichloro-1-(2-(3,5-dimethyl-1H-pyrazol-4-yl)ethyl)-2-methyl-4-nitro-1H-benzo[d]imidazole]
